What was measured:
CYPSE (tuber) = test: Assay for herbicidal activity, paddy pots: CYPSE; assay type: in vivo, Cyperus serotinus ROTTB; conditions: three weeks after application, 0 untreated control, 100 complete kill
How it was run: (§1)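 Sandy loam soil (1.2% organic matter, pH 6) was filled into 140 cm^2 pots kept under paddy conditions. The test compounds were then applied, and injury to rice and weed species was rated.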

paddy weeds = test: Greenhouse herbicidal assays, overall statements on paddy weeds; assay type: in vivo
From the text: (§2) To evaluate herbicidal activity against the paddy weeds in the paddy rice (ORYSA: Oryza sativa L.), the herbicidal activity of the compounds of the invention was compared to that of the compound No.109 (compound A) disclosed in U.S. Pat. No. 4,983,210 which has a similar structure with that of the present invention. The paddy weeds tested were ECHOR (Echinochloa crus-galli var. oryzicola), SCPJU (Scirpus juncoides ROXB), MOOVA (Monochoria vaginalis PRESL), CYPSE (Cyperus serotinus ROTTB), and SAGPY (Sagittaria pygmaea MTQ).
The vessels employed were plastic pots having an area of 140 cm^2 and filled with a sandy loam soil containing 1.2% organic matter (pH 6). Rice seedlings at the 3-leaf stage (ORYSA: Oryza sativa L.) and pregerminated seeds of rice were transplanted at the depth of 2 cm or seeded on the soil surface, respectively. Then the seeds of ECHOR, SCPJU, and MOOVA were seeded and the tubers of CYPSE and SAGPY also planted on the soil surface in the above plastic pot, wherein the pots were watered at the depth of 3 cm just after planting.
Two days after planting, a solution of the test compound and a non-ionic emulsifier (Tween-20) in 50% acetone, was diluted with water to a concentration of 0.016, 0.063, 0.25, 1.0, and 4.0 kg/ha, respectively and applied evenly to the test pots. […]

ECHOR (seed) = test: Assay for herbicidal activity, paddy pots: ECHOR; assay type: in vivo, Echinochloa crus-galli var. oryzicola; conditions: three weeks after application, 0 untreated control, 100 complete kill
How it was run: as §1

ORYSA (seed) = test: Assay for herbicidal activity, paddy pots: phytotoxicity to seeded (pregerminated) rice; assay type: in vivo, Oryza sativa L.; conditions: three weeks after application, 0 untreated control, 100 complete kill
From the text: as §2, with “No. 4,983,210 which has a similar structure with that of the present invention.” left out, “PRESL), CYPSE” left out, “MTQ). The vessels employed were plastic pots having an area of 140 cm^2 and filled with a sandy loam soil containing 1.2% organic matter (pH 6).” for “MTQ).”

SAGPY (tuber) = test: Assay for herbicidal activity, paddy pots: SAGPY; assay type: in vivo, Sagittaria pygmaea MTQ; conditions: three weeks after application, 0 untreated control, 100 complete kill
How it was run: as §1

ORYSA (3-leaf stage) = test: Assay for herbicidal activity, paddy pots: phytotoxicity to transplanted rice seedlings; assay type: in vivo, Oryza sativa L.; conditions: three weeks after application, 0 untreated control, 100 complete kill
From the text: as §2, with “No. 4,983,210 which has a similar structure with that of the present invention.” left out, “PRESL), CYPSE” left out, “MTQ). The vessels employed were plastic pots having an area of 140 cm^2 and filled with a sandy loam soil containing 1.2% organic matter (pH 6).” for “MTQ).”

MOOVA (seed) = test: Assay for herbicidal activity, paddy pots: MOOVA; assay type: in vivo, Monochoria vaginalis PRESL; conditions: three weeks after application, 0 untreated control, 100 complete kill
How it was run: (§3)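 Paddy pot test; 140 cm^2 plastic pots; sandy loam, 1.2% organic matter, pH 6.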

SCPJU (seed) = test: Assay for herbicidal activity, paddy pots: SCPJU; assay type: in vivo, Scirpus juncoides ROXB; conditions: three weeks after application, 0 untreated control, 100 complete kill
How it was run: as §3

CC1(COCc2c(F)cccc2F)CC(c2cccs2)=NO1 (stereo not shown) [Compound A, reference compound]
active: herbicidal activity, in words (paddy weeds; at the higher doses)
100%: CYPSE (tuber) herbicidal activity, visual percentage grading (CYPSE (tuber); 1.000 kg/ha) | CYPSE (tuber) herbicidal activity, visual percentage grading (CYPSE (tuber); 4.000 kg/ha) | ECHOR (seed) herbicidal activity, visual percentage grading (ECHOR (seed); 1.000 kg/ha) | ECHOR (seed) herbicidal activity, visual percentage grading (ECHOR (seed); 4.000 kg/ha) | ORYSA (seed) phytotoxicity, visual percentage grading (ORYSA (seed); 1.000 kg/ha) | ORYSA (seed) phytotoxicity, visual percentage grading (ORYSA (seed); 4.000 kg/ha) | SAGPY (tuber) herbicidal activity, visual percentage grading (SAGPY (tuber); 0.250 kg/ha) | SAGPY (tuber) herbicidal activity, visual percentage grading (SAGPY (tuber); 1.000 kg/ha) | SAGPY (tuber) herbicidal activity, visual percentage grading (SAGPY (tuber); 4.000 kg/ha) | MOOVA (seed) herbicidal activity, visual percentage grading (MOOVA (seed); 4.000 kg/ha) | SCPJU (seed) herbicidal activity, visual percentage grading (SCPJU (seed); 4.000 kg/ha)
80%: MOOVA (seed) herbicidal activity, visual percentage grading (MOOVA (seed); 0.250 kg/ha) | MOOVA (seed) herbicidal activity, visual percentage grading (MOOVA (seed); 1.000 kg/ha)
20%: ECHOR (seed) herbicidal activity, visual percentage grading (ECHOR (seed); 0.250 kg/ha) | ORYSA (seed) phytotoxicity, visual percentage grading (ORYSA (seed); 0.250 kg/ha)
inactive: herbicidal activity, in words (paddy weeds; at the lower doses)
10%: CYPSE (tuber) herbicidal activity, visual percentage grading (CYPSE (tuber); 0.250 kg/ha) | SCPJU (seed) herbicidal activity, visual percentage grading (SCPJU (seed); 0.250 kg/ha)
0%: CYPSE (tuber) herbicidal activity, visual percentage grading (CYPSE (tuber); 0.016 kg/ha) | CYPSE (tuber) herbicidal activity, visual percentage grading (CYPSE (tuber); 0.063 kg/ha) | ECHOR (seed) herbicidal activity, visual percentage grading (ECHOR (seed); 0.016 kg/ha) | ECHOR (seed) herbicidal activity, visual percentage grading (ECHOR (seed); 0.063 kg/ha) | ORYSA (seed) phytotoxicity, visual percentage grading (ORYSA (seed); 0.016 kg/ha) | ORYSA (seed) phytotoxicity, visual percentage grading (ORYSA (seed); 0.063 kg/ha) | SAGPY (tuber) herbicidal activity, visual percentage grading (SAGPY (tuber); 0.016 kg/ha) | SAGPY (tuber) herbicidal activity, visual percentage grading (SAGPY (tuber); 0.063 kg/ha) | ORYSA (3-leaf stage) phytotoxicity, visual percentage grading (ORYSA (3-leaf stage); 0.016 kg/ha) | ORYSA (3-leaf stage) phytotoxicity, visual percentage grading (ORYSA (3-leaf stage); 0.063 kg/ha) | ORYSA (3-leaf stage) phytotoxicity, visual percentage grading (ORYSA (3-leaf stage); 0.250 kg/ha) | ORYSA (3-leaf stage) phytotoxicity, visual percentage grading (ORYSA (3-leaf stage); 1.000 kg/ha) | ORYSA (3-leaf stage) phytotoxicity, visual percentage grading (ORYSA (3-leaf stage); 4.000 kg/ha) | MOOVA (seed) herbicidal activity, visual percentage grading (MOOVA (seed); 0.016 kg/ha) | MOOVA (seed) herbicidal activity, visual percentage grading (MOOVA (seed); 0.063 kg/ha) | SCPJU (seed) herbicidal activity, visual percentage grading (SCPJU (seed); 0.016 kg/ha) | SCPJU (seed) herbicidal activity, visual percentage grading (SCPJU (seed); 0.063 kg/ha)
70%: SCPJU (seed) herbicidal activity, visual percentage grading (SCPJU (seed); 1.000 kg/ha)

Reference: patent US6838416B2, “Herbicidal 5-benzyloxymethyl-1,2-isoxazoline derivatives” (Korea Research Institute of Chemical Technology, priority 2000, dated 2005)
